The source made the active and inactive calls. No cut-off for these calls is given here.
Columns and labels:
[1] = tested on: A-431; assay: Induction of apoptosis in human A-431 cells assessed as necrotic cells at 8 uM measured after 48 hrs by Annexin V-FITC staining based flow cytometry (reference value: 0.21%); assay type: functional
[2] = tested on: A-431; assay: Induction of apoptosis in human A-431 cells assessed as necrotic cells at 0.2 uM measured after 48 hrs by Annexin V-FITC staining based flow cytometry (reference value: 0.21%); assay type: functional
[3] = tested on: A-431; assay: Induction of apoptosis in human A-431 cells assessed as early apoptotic cells at 4 uM measured after 48 hrs by Annexin V-FITC staining based flow cytometry (reference value: 2.1%); assay type: functional
[4] = species: Homo sapiens; assay: Selectivity ratio of IC50 for wild type EGFR (unknown origin) to IC50 for EGFR T790M mutant (unknown origin) measured by mobility shift assay
[5] = tested on: A-431; assay: Induction of apoptosis in human A-431 cells assessed as early apoptotic cells at 8 uM measured after 48 hrs by Annexin V-FITC staining based flow cytometry (reference value: 2.1%); assay type: functional
[6] = species: Homo sapiens; assay: Inhibition of EGFR T790M/L858R double mutant (unknown origin) using FAM-labelled peptide as substrate at 1 uM incubated for 10 mins in presence of ATP measured by mobility shift assay
[7] = tested on: MCF7; assay: Antiproliferative activity against human MCF7 cells assessed as inhibition of cell proliferation measured after 72 hrs by MTT assay; assay type: functional, cell-based; conditions: MCF7, 72 h
[8] = target: Hepatocyte growth factor receptor (Homo sapiens) (UniProt P08581); assay: Inhibition of c-MET (unknown origin) using FAM-labelled peptide as substrate at 1 uM incubated for 10 mins in presence of ATP measured by mobility shift assay
Sequence of Hepatocyte growth factor receptor (Homo sapiens) (P08581 whole entry): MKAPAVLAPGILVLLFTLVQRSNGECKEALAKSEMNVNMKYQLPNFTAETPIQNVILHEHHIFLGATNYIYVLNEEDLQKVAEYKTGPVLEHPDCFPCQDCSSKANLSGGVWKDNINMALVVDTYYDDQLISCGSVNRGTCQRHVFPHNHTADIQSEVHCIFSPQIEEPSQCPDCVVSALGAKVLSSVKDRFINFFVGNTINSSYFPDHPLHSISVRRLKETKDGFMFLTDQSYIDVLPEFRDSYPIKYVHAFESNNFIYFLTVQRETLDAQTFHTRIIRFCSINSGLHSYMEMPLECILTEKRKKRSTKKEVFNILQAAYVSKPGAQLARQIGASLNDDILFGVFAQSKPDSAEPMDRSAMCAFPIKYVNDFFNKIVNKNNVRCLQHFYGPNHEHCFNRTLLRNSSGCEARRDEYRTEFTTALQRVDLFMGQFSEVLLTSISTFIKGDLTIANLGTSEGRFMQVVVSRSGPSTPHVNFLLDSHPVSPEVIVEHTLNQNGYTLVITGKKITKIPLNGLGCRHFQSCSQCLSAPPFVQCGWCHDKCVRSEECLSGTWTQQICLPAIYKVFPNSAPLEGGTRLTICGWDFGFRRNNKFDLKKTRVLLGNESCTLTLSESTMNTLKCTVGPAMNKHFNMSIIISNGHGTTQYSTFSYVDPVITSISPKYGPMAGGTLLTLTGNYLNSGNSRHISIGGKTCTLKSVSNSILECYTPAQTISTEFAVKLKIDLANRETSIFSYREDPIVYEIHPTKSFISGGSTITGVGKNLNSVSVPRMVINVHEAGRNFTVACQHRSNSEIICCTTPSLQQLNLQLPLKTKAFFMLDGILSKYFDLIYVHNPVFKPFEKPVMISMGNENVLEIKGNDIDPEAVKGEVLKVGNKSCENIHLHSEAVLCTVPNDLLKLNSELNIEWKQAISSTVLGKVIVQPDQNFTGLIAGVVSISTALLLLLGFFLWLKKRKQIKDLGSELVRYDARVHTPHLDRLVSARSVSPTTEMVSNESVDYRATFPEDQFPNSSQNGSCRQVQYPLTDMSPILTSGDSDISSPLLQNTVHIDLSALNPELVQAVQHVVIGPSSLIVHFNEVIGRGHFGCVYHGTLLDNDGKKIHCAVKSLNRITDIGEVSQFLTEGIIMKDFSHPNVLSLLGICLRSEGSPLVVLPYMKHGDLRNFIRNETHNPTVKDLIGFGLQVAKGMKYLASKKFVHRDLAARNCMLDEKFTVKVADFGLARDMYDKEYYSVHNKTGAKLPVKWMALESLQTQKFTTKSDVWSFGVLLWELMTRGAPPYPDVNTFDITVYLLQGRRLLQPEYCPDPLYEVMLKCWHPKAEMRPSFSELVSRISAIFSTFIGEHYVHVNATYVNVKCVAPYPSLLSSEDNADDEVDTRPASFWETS

[9] = species: Homo sapiens; assay: Inhibition of PI3K (unknown origin) using FAM-labelled peptide as substrate at 1 uM incubated for 10 mins in presence of ATP measured by mobility shift assay
[10] = tested on: NCI-H1975; assay: Antiproliferative activity against human NCI-H1975 cells harboring EGFR T790M/L858R double mutant assessed as inhibition of cell viability at 1 uM measured after 72 hrs by MTT assay; assay type: functional
[11] = tested on: A-431; assay: Induction of apoptosis in human A-431 cells assessed as necrotic cells at 4 uM measured after 48 hrs by Annexin V-FITC staining based flow cytometry (reference value: 0.21%); assay type: functional
[12] = tested on: A-431; assay: Induction of apoptosis in human A-431 cells assessed as late apoptotic cells at 4 uM measured after 48 hrs by Annexin V-FITC staining based flow cytometry (reference value: 2.02%); assay type: functional
[13] = tested on: A-431; assay: Antiproliferative activity against human A-431 cells assessed as inhibition of cell proliferation measured after 72 hrs by MTT assay; assay type: functional, cell-based; conditions: A-431, 72 h
[14] = species: Homo sapiens; assay: Selectivity ratio of IC50 for wild type EGFR (unknown origin) to IC50 for EGFR T790M/L858R double mutant (unknown origin) measured by mobility shift assay
[15] = target: T1, Epidermal growth factor receptor (Homo sapiens, UniProt P00533); assay: Inhibition of wild type EGFR (unknown origin) using FAM-labelled peptide as substrate at 1 uM incubated for 10 mins in presence of ATP measured by mobility shift assay
T1 sequence (P00533 whole entry): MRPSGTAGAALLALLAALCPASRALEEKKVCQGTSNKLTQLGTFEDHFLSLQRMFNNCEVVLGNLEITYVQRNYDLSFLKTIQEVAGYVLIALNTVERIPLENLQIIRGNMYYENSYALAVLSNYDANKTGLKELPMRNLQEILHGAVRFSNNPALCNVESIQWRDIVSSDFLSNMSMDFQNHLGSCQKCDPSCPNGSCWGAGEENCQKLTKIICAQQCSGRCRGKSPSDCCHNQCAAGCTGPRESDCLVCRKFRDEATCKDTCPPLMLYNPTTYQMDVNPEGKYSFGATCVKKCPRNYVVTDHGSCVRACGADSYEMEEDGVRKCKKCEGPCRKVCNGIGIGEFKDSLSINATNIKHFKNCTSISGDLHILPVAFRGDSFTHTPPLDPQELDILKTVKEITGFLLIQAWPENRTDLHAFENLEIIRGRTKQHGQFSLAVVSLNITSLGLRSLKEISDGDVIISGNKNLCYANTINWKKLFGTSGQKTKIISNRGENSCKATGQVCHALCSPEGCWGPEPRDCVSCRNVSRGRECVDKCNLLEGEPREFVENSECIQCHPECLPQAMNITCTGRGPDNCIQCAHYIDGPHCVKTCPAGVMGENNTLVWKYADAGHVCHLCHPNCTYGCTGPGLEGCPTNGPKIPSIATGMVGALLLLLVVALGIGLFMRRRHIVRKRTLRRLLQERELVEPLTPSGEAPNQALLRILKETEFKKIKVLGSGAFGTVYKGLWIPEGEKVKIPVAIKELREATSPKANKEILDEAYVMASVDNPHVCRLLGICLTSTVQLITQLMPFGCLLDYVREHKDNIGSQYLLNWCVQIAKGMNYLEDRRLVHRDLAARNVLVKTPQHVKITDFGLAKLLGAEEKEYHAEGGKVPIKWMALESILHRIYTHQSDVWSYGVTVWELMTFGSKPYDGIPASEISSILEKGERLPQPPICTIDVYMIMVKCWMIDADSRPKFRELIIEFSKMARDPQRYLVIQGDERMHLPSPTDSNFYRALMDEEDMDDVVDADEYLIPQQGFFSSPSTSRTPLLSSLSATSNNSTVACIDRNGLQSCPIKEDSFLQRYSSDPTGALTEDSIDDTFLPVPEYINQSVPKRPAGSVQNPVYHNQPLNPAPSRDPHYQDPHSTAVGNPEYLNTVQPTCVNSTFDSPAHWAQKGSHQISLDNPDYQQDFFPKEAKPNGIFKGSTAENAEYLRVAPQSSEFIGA

[16] = tested on: NCI-H1975; assay: Antiproliferative activity against human NCI-H1975 cells harboring EGFR T790M/L858R double mutant assessed as inhibition of cell viability measured after 72 hrs by MTT assay; assay type: functional, cell-based; conditions: NCI-H1975, 72 h
[17] = target: T1, Epidermal growth factor receptor; assay: Inhibition of wild type EGFR (unknown origin) using FAM-labelled peptide as substrate incubated for 10 mins in presence of ATP measured by mobility shift assay
[18] = tested on: A-431; assay: Induction of apoptosis in human A-431 cells assessed as viable cells at 0.2 uM measured after 48 hrs by Annexin V-FITC staining based flow cytometry (reference value: 95.67%); assay type: functional; conditions: read-out: Activity
[19] = tested on: L02; assay: Cytotoxicity against human L02 cells assessed as inhibition of cell proliferation measured after 72 hrs by MTT assay; assay type: cell-based; conditions: L02, 72 h
[20] = tested on: A-431; assay: Induction of apoptosis in human A-431 cells assessed as early apoptotic cells at 0.2 uM measured after 48 hrs by Annexin V-FITC staining based flow cytometry (reference value: 2.1%); assay type: functional
[21] = tested on: A-431; assay: Induction of apoptosis in human A-431 cells assessed as late apoptotic cells at 0.2 uM measured after 48 hrs by Annexin V-FITC staining based flow cytometry (reference value: 2.02%); assay type: functional
[22] = species: Homo sapiens; assay: Inhibition of EGFR T790M mutant (unknown origin) using FAM-labelled peptide as substrate at 1 uM incubated for 10 mins in presence of ATP measured by mobility shift assay
[23] = tested on: A549; assay: Antiproliferative activity against human A549 cells assessed as inhibition of cell proliferation measured after 72 hrs by MTT assay; assay type: functional, cell-based; conditions: A549, 72 h
[24] = tested on: A-431; assay: Induction of apoptosis in human A-431 cells assessed as late apoptotic cells at 8 uM measured after 48 hrs by Annexin V-FITC staining based flow cytometry (reference value: 2.02%); assay type: functional
[25] = target: Vascular endothelial growth factor receptor 2 (Homo sapiens) (UniProt P35968); assay: Inhibition of KDR (unknown origin) using FAM-labelled peptide as substrate at 1 uM incubated for 10 mins in presence of ATP measured by mobility shift assay
Sequence of Vascular endothelial growth factor receptor 2 (Homo sapiens) (P35968 whole entry): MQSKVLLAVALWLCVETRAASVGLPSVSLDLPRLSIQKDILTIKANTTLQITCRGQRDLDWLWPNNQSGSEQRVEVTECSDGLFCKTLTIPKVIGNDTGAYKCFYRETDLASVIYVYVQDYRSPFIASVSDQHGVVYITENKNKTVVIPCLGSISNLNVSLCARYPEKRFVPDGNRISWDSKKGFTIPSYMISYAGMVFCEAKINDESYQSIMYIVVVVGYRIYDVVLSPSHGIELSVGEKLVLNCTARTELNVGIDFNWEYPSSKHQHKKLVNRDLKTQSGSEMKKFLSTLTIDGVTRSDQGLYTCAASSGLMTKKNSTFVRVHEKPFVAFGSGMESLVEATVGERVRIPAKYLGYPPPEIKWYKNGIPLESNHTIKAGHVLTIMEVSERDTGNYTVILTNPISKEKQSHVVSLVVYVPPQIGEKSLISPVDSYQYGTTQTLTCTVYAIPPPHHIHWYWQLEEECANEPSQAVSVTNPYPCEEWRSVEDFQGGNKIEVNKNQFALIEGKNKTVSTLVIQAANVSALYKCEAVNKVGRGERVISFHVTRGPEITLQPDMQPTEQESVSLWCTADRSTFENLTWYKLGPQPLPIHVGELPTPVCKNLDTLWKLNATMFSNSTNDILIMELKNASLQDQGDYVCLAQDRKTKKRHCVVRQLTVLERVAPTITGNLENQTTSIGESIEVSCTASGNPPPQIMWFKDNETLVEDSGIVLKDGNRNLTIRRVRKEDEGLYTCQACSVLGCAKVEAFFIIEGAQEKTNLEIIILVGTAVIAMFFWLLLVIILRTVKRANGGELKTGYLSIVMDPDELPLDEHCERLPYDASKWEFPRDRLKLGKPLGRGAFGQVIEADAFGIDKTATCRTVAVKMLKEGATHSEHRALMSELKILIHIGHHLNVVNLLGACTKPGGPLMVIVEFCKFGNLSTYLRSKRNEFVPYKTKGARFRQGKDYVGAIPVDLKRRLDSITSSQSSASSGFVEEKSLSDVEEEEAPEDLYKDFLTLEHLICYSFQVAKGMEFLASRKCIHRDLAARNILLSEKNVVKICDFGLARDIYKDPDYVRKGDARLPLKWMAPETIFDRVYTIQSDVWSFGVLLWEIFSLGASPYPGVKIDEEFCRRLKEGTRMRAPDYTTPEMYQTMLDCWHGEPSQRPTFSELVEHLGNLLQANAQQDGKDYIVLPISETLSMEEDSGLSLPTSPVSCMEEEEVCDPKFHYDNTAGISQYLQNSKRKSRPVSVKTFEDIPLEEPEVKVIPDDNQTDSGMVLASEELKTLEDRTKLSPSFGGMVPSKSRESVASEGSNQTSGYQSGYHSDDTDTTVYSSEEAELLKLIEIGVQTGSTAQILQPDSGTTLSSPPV

[26] = tested on: A-431; assay: Induction of cell morphological changes in human A-431 cells assessed as chromatin contraction with sharp cell edge at 0.33 uM measured after 6 hrs by Acridine orange staining based fluorescence microscopy; assay type: functional
[27] = tested on: A-431; assay: Induction of apoptosis in human A-431 cells assessed as viable cells at 8 uM measured after 48 hrs by Annexin V-FITC staining based flow cytometry (reference value: 95.67%); assay type: functional; conditions: read-out: Activity
[28] = Inhibition of EGFR T790M mutant (unknown origin) using FAM-labelled peptide as substrate incubated for 10 mins in presence of ATP measured by mobility shift assay; design: species or system Homo sapiens
[29] = tested on: A-431; assay: Antiproliferative activity against human A-431 cells assessed as inhibition of cell proliferation at 0.33 uM measured after 6 hrs by Acridine orange staining based fluorescence microscopy; assay type: functional
[30] = tested on: A-431; assay: Induction of apoptosis in human A-431 cells assessed as viable cells at 4 uM measured after 48 hrs by Annexin V-FITC staining based flow cytometry (reference value: 95.67%); assay type: functional; conditions: read-out: Activity
[31] = tested on: HeLa; assay: Antiproliferative activity against human HeLa cells assessed as inhibition of cell proliferation measured after 72 hrs by MTT assay; assay type: functional, cell-based
[32] = tested on: NCI-H1975; assay: Antiproliferative activity against human NCI-H1975 cells harboring EGFR T790M/L858R double mutant assessed as inhibition of cell viability at 10 uM measured after 72 hrs by MTT assay; assay type: functional
[33] = target: Serine/threonine-protein kinase mTOR (Homo sapiens) (UniProt P42345); assay: Inhibition of mTOR (unknown origin) using FAM-labelled peptide as substrate at 1 uM incubated for 10 mins in presence of ATP measured by mobility shift assay
[34] = Inhibition of EGFR T790M/L858R double mutant (unknown origin) using FAM-labelled peptide as substrate incubated for 10 mins in presence of ATP measured by mobility shift assay; design: species or system Homo sapiens

## C=CC(=O)Nc1cccc(Oc2nc(Nc3cccc(C#N)c3)nc3ccsc23)c1
[1]
  Activity: 0.97%
[2]
  Activity: 0.63%
[3]
  Activity: 4.87%
[4]
  Selectivity ratio: > 15
[5]
  Activity: 3.54%
[6]
  inhibition: 104%
[7]
  IC50: 19 µM
[8]
  inhibition: 6%
[9]
  inhibition: 31.5%
[10]
  inhibition at 1 µM: 44.3%
[11]
  Activity: 1.33%
[12]
  Activity: 16.41%
[13]
  IC50: 3.79 µM
[14]
  Selectivity ratio: > 73
[15]
  inhibition: 23.5%
[16]
  IC50: 0.699 µM
[17]
  IC50: > 1 µM
[18]
  viability at 0.2 µM: 83.4%
[19]
  IC50: > 50 µM
[20]
  Activity: 3.29%
[21]
  Activity: 12.66%
[22]
  inhibition: 95.9%
[23]
  IC50: 4.34 µM
[24]
  Activity: 17.17%
[25]
  inhibition: 1.1%
[26]
  Activity: Active
[27]
  viability at 8 µM: 78.3%
[28]
  IC50: 0.065 µM
[29]
  Activity: Active
[30]
  viability at 4 µM: 77.4%
[31]
  IC50: 6.39 µM
[32]
  inhibition at 10 µM: 79.5%
[33]
  inhibition: 9.3%
[34]
  IC50: 0.0136 µM
